Assay results published in article PMC9866191, “Novel 9-Benzylaminoacridine Derivatives as Dual Inhibitors of Phosphodiesterase 5 and Topoisomerase II for the Treatment of Colon Cancer” (Molecules, 2023).

What was measured:
Assay type in all cases: cell-based
[1] = tested on: panel of 60 human tumor cell lines; assay: NCI 60-cell line one-dose screen (mean); conditions: mean of the 60 cell lines, single dose 10^−5 M, read-out: Mean % Growth Inhibition
Summary of the method: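 Single dose, 10^−5 M; NCI-60 panel (60 human tumour lines, 9 tissue types), run at NCI DTP. Read-out: % inhibition.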

IGROV1 = assay: NCI-60 one-dose screen; conditions: Homo sapiens, IGROV-1; IGROV1, Ovarian Cancer panel; single dose 10^−5 M; read-out: Growth inhibition %
CCRF-CEM = assay: NCI-60 one-dose screen; conditions: Homo sapiens, Leukemia panel, single dose 10^−5 M, read-out: Growth inhibition %
T-47D = assay: NCI-60 one-dose screen; conditions: Homo sapiens, T47D, Breast Cancer panel, single dose 10^−5 M, read-out: Growth inhibition %
SNB-75 = assay: NCI-60 one-dose screen; conditions: Homo sapiens; SNB-75, CNS Cancer panel; single dose 10^−5 M; read-out: Growth inhibition %
HT29 = assay: NCI-60 one-dose screen; conditions: Homo sapiens, HT-29; HT29, Colon Cancer panel; single dose 10^−5 M; read-out: Growth inhibition %
MDA-MB-435 = assay: NCI-60 one-dose screen; conditions: Homo sapiens; MDA-MB-435, Melanoma panel; single dose 10^−5 M; read-out: Growth inhibition %
ACHN = assay: NCI-60 one-dose screen; conditions: Homo sapiens, Renal Cancer panel, single dose 10^−5 M, read-out: Growth inhibition %
SR = assay: NCI-60 one-dose screen; conditions: Homo sapiens, Leukemia panel, single dose 10^−5 M, read-out: Growth inhibition %
SK-OV-3 = assay: NCI-60 one-dose screen; conditions: Homo sapiens; SK-OV-3, Ovarian Cancer panel; single dose 10^−5 M; read-out: Growth inhibition %
HCT-15 = assay: NCI-60 one-dose screen; conditions: Homo sapiens; HCT-15, Colon Cancer panel; single dose 10^−5 M; read-out: Growth inhibition %
EKVX = assay: NCI-60 one-dose screen; conditions: Homo sapiens, Non-small cell lung panel, single dose 10^−5 M, read-out: Growth inhibition %
OVCAR-5 = assay: NCI-60 one-dose screen; conditions: Homo sapiens; OVCAR-5, Ovarian Cancer panel; single dose 10^−5 M; read-out: Growth inhibition %
HL-60(TB) = assay: NCI-60 one-dose screen; conditions: Homo sapiens, Leukemia panel, single dose 10^−5 M, read-out: Growth inhibition %
NCI-H23 = assay: NCI-60 one-dose screen; conditions: Homo sapiens; NCI-H23, Non-small cell lung panel; single dose 10^−5 M; read-out: Growth inhibition %
MOLT-4 = assay: NCI-60 one-dose screen; conditions: Homo sapiens; MOLT-4, Leukemia panel; single dose 10^−5 M; read-out: Growth inhibition %
SK-MEL-28 = assay: NCI-60 one-dose screen; conditions: Homo sapiens; SK-MEL-28, Melanoma panel; single dose 10^−5 M; read-out: Growth inhibition %
OVCAR-4 = assay: NCI-60 one-dose screen; conditions: Homo sapiens; OVCAR-4, Ovarian Cancer panel; single dose 10^−5 M; read-out: Growth inhibition %
SK-MEL-5 = assay: NCI-60 one-dose screen; conditions: Homo sapiens; SK-MEL-5, Melanoma panel; single dose 10^−5 M; read-out: Growth inhibition %
PC-3 = assay: NCI-60 one-dose screen; conditions: Homo sapiens; PC-3, Prostate Cancer panel; single dose 10^−5 M; read-out: Growth inhibition %
NCI-H522 = assay: NCI-60 one-dose screen; conditions: Homo sapiens; NCI-H522, Non-small cell lung panel; single dose 10^−5 M; read-out: Growth inhibition %
786-0 = assay: NCI-60 one-dose screen; conditions: Homo sapiens; 786-0, Renal Cancer panel; single dose 10^−5 M; read-out: Growth inhibition %
SF-295 = assay: NCI-60 one-dose screen; conditions: Homo sapiens; SF-295, CNS Cancer panel; single dose 10^−5 M; read-out: Growth inhibition %
M14 = assay: NCI-60 one-dose screen; conditions: Homo sapiens; M14, Melanoma panel; single dose 10^−5 M; read-out: Growth inhibition %
DU-145 = assay: NCI-60 one-dose screen; conditions: Homo sapiens; DU-145, Prostate Cancer panel; single dose 10^−5 M; read-out: Growth inhibition %
BT-549 = assay: NCI-60 one-dose screen; conditions: Homo sapiens; BT-549, Breast Cancer panel; single dose 10^−5 M; read-out: Growth inhibition %
NCI/ADR-RES = assay: NCI-60 one-dose screen; conditions: Homo sapiens, Ovarian Cancer panel, single dose 10^−5 M, read-out: Growth inhibition %
CAKI-1 = assay: NCI-60 one-dose screen; conditions: Homo sapiens; CAKI-1, Renal Cancer panel; single dose 10^−5 M; read-out: Growth inhibition %
MCF7 = assay: NCI-60 one-dose screen; conditions: Homo sapiens; MCF7, Breast Cancer panel; single dose 10^−5 M; read-out: Growth inhibition %
HOP-92 = assay: NCI-60 one-dose screen; conditions: Homo sapiens; HOP-92, Non-small cell lung panel; single dose 10^−5 M; read-out: Growth inhibition %
NCI-H460 = assay: NCI-60 one-dose screen; conditions: Homo sapiens; NCI-H460, Non-small cell lung panel; single dose 10^−5 M; read-out: Growth inhibition %
A498 = assay: NCI-60 one-dose screen; conditions: Homo sapiens; A498, Renal Cancer panel; single dose 10^−5 M; read-out: Growth inhibition %

SMILES	inhibition at 10 µM [1]	inhibition at 10 µM (IGROV1)	inhibition at 10 µM (CCRF-CEM)	inhibition at 10 µM (T-47D)	inhibition at 10 µM (SNB-75)	inhibition at 10 µM (HT29)	inhibition at 10 µM (MDA-MB-435)	inhibition at 10 µM (ACHN)	inhibition at 10 µM (SR)	inhibition at 10 µM (SK-OV-3)	inhibition at 10 µM (HCT-15)	inhibition at 10 µM (EKVX)	inhibition at 10 µM (OVCAR-5)	inhibition at 10 µM (HL-60(TB))	inhibition at 10 µM (NCI-H23)	inhibition at 10 µM (MOLT-4)	inhibition at 10 µM (SK-MEL-28)	inhibition at 10 µM (OVCAR-4)	inhibition at 10 µM (SK-MEL-5)	inhibition at 10 µM (PC-3)	also measured
Fc1ccccc1CNc1c2ccccc2nc2ccccc12 [Compound 8, Acridin-9-yl-(2-fluorobenzyl)-amine]	56.5%	63.4%	54%	55.2%	28.3%	76.7%	43.8%	76.9%	82%	49.1%	70.3%	38.3%	48.8%	43.1%	55.9%	82.7%	15.9%	60%	39.3%	52.9%	inhibition at 10 µM (NCI-H522): 34.2%; inhibition at 10 µM (786-0): 60%; inhibition at 10 µM (SF-295): 48.2%; inhibition at 10 µM (M14): 46%; inhibition at 10 µM (DU-145): 38.1%; inhibition at 10 µM (BT-549): 15.1%; inhibition at 10 µM (NCI/ADR-RES): 62%; inhibition at 10 µM (CAKI-1): 64.2%; inhibition at 10 µM (MCF7): 83.8%; inhibition at 10 µM (HOP-92): 77.3%; inhibition at 10 µM (NCI-H460): 86.5%; inhibition at 10 µM (A498): 89.1%
Fc1cccc(CNc2c3ccccc3nc3ccccc23)c1 [Compound 9, Acridin-9-yl-(3-fluorobenzyl)-amine]	64.2%	74.4%	53.7%	57.3%	37%	85.7%	51.1%	82.9%	80.9%	48.9%	77.1%	68%	56.2%	53%	66.1%	85.1%	21.5%	69.5%	39.5%	51%	inhibition at 10 µM (NCI-H522): 62.2%; inhibition at 10 µM (786-0): 63.5%; inhibition at 10 µM (SF-295): 74.8%; inhibition at 10 µM (M14): 61.2%; inhibition at 10 µM (DU-145): 58.3%; inhibition at 10 µM (BT-549): 22.9%; inhibition at 10 µM (NCI/ADR-RES): 69.9%; inhibition at 10 µM (CAKI-1): 73%; inhibition at 10 µM (MCF7): 92.1%; inhibition at 10 µM (HOP-92): 104%; inhibition at 10 µM (NCI-H460): 87.3%; inhibition at 10 µM (A498): 113%
Fc1ccc(CNc2c3ccccc3nc3ccccc23)cc1 [Compound 10, Acridin-9-yl-(4-fluorobenzyl)-amine]	72.3%	78.1%	74%	68.9%	57.9%	83.9%	65.2%	87.5%	93.4%	60%	82.4%	64.4%	61.5%	78.8%	68.3%	91.3%	31.8%	66.8%	57.5%	73.1%	inhibition at 10 µM (NCI-H522): 47.6%; inhibition at 10 µM (786-0): 72.4%; inhibition at 10 µM (SF-295): 72.4%; inhibition at 10 µM (M14): 65.7%; inhibition at 10 µM (DU-145): 65.1%; inhibition at 10 µM (BT-549): 19.3%; inhibition at 10 µM (NCI/ADR-RES): 70.3%; inhibition at 10 µM (CAKI-1): 74.5%; inhibition at 10 µM (MCF7): 92.9%; inhibition at 10 µM (HOP-92): 82.8%; inhibition at 10 µM (NCI-H460): 91.2%; inhibition at 10 µM (A498): 102%
Clc1ccc(CNc2c3ccccc3nc3ccccc23)cc1 [Compound 13, Acridin-9-yl-(4-chlorobenzyl)-amine]	59.4%	68.3%	69.8%	56.6%	31.6%	85%	39.3%	77.2%	97.7%	40%	76.7%	37.4%	49.5%	55.3%	47%	95.4%	19.7%	66.9%	38.8%	61.3%	inhibition at 10 µM (NCI-H522): 33.5%; inhibition at 10 µM (786-0): 64.7%; inhibition at 10 µM (SF-295): 40.4%; inhibition at 10 µM (M14): 46.7%; inhibition at 10 µM (DU-145): 45.2%; inhibition at 10 µM (BT-549): 29.1%; inhibition at 10 µM (NCI/ADR-RES): 63.4%; inhibition at 10 µM (CAKI-1): 58.6%; inhibition at 10 µM (MCF7): 84%; inhibition at 10 µM (HOP-92): 74.5%; inhibition at 10 µM (NCI-H460): 83.6%; inhibition at 10 µM (A498): 79.2%
COc1ccc(CNc2c3ccccc3nc3ccccc23)c(OC)c1 [Compound 17, Acridin-9-yl-(2,4-dimethoxybenzyl)-amine]	60.8%	77.5%	44.6%	47.1%	35.5%	86.2%	61.3%	74.2%	81.9%	36.7%	74%	48.9%	49.7%	63.1%	65.1%	81.5%	30.7%	60.3%	29.6%	52.9%	inhibition at 10 µM (NCI-H522): 59.4%; inhibition at 10 µM (786-0): 60.9%; inhibition at 10 µM (SF-295): 63.7%; inhibition at 10 µM (M14): 56.2%; inhibition at 10 µM (DU-145): 50.6%; inhibition at 10 µM (BT-549): 33.3%; inhibition at 10 µM (NCI/ADR-RES): 64.4%; inhibition at 10 µM (CAKI-1): 63.8%; inhibition at 10 µM (MCF7): 85.5%; inhibition at 10 µM (HOP-92): 114%; inhibition at 10 µM (NCI-H460): 83.3%; inhibition at 10 µM (A498): 111%
